pIC50: −log10 of the molar value.
System: 454973-116-R2-J3-PDC spheroids, viability, % test/control
Experiment: Anticancer human tumor 454973-116-R2-J3-PDC patient-derived pancreatic carcinoma cell line growth inhibition [GQUAD]
Conditions: spheroids with HUVEC and MSC; for pIC50: curve of first compound; for viability, T/C: stronger effect = lower value; active means viability on the fitted dose curve at most 10% of control; inactive means the rest
Procedure, shortened: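 Viability of tumor cells grown as complex spheroids with endothelial and stromal cells, exposed to drug combinations. Top concentration at or near clinical Cmax (else 10 microM), diluted in half-log increments.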

[1] = second compound 0.0316 µM, first compound 0.0316 µM
[2] = second compound 0.0316 µM, first compound 0.1 µM
[3] = second compound 0.0316 µM, first compound 0.316 µM
[4] = second compound 0.0316 µM, first compound 1 µM
[5] = second compound 0.0316 µM, first compound 3.16 µM
[6] = second compound 0.0316 µM, first compound 10 µM
[7] = second compound 0.1 µM, first compound 0.0316 µM
[8] = second compound 0.1 µM, first compound 0.1 µM
[9] = second compound 0.1 µM, first compound 0.316 µM
[10] = second compound 0.1 µM, first compound 1 µM
[11] = second compound 0.1 µM, first compound 3.16 µM
[12] = second compound 0.1 µM, first compound 10 µM
[13] = second compound 0.316 µM, first compound 0.0316 µM
[14] = second compound 0.316 µM, first compound 0.1 µM
[15] = second compound 0.316 µM, first compound 0.316 µM
[16] = second compound 0.316 µM, first compound 1 µM
[17] = second compound 0.316 µM, first compound 3.16 µM
[18] = second compound 0.316 µM, first compound 10 µM
[19] = second compound 1 µM, first compound 0.0316 µM
[20] = second compound 1 µM, first compound 0.1 µM
[21] = second compound 1 µM, first compound 0.316 µM
[22] = second compound 1 µM, first compound 1 µM
[23] = second compound 1 µM, first compound 3.16 µM
[24] = second compound 1 µM, first compound 10 µM
[25] = second compound 3.16 µM, first compound 0.0316 µM
[26] = second compound 3.16 µM, first compound 0.1 µM
[27] = second compound 3.16 µM, first compound 0.316 µM
[28] = second compound 3.16 µM, first compound 1 µM
[29] = second compound 3.16 µM, first compound 3.16 µM
[30] = second compound 3.16 µM, first compound 10 µM
[31] = second compound 10 µM, first compound 0.0316 µM
[32] = second compound 10 µM, first compound 0.1 µM
[33] = second compound 10 µM, first compound 0.316 µM
[34] = second compound 10 µM, first compound 1 µM
[35] = second compound 10 µM, first compound 3.16 µM
[36] = second compound 10 µM, first compound 10 µM
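Further: spheroids exposed to compounds for seven days.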
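Wherever viability, T/C is given: 100% = DMSO vehicle control viability.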

CC(C)n1c(=O)n(C)c2cnc3cc(F)c(-c4ccc(OCCCN5CCCCC5)nc4)cc3c21 + Cc1cnc(CNC(=O)c2c(=O)c3ccc(N4CCCN(C)CC4)nc3n3c2sc2ccccc23)cn1
< 5.00: pIC50 (second compound 0.0316 µM) | pIC50 (second compound 3.16 µM)
7.40: pIC50 (second compound 1 µM)
active: viability, T/C [31] 0.28% | viability, T/C [32] 0.31% | viability, T/C [33] 14% | viability, T/C [34] 0.33% | viability, T/C [35] 0.3% | viability, T/C [36] 0.25%
> 7.50: pIC50 (second compound 0.1 µM) | pIC50 (second compound 0.316 µM) | pIC50 (second compound 10 µM)
inactive: viability, T/C [1] 76.6% | viability, T/C [2] 53.5% | viability, T/C [3] 59.6% | viability, T/C [4] 52.9% | viability, T/C [5] 56.8% | viability, T/C [6] 52.3% | viability, T/C [7] 43% | viability, T/C [8] 35.6% | viability, T/C [9] 36.5% | viability, T/C [10] 33.6% | viability, T/C [11] 39.5% | viability, T/C [12] 32.7% | viability, T/C [13] 45.5% | viability, T/C [14] 49% | viability, T/C [15] 38.7% | viability, T/C [16] 38.8% | viability, T/C [17] 40.3% | viability, T/C [18] 33.7% | viability, T/C [19] 52.4% | viability, T/C [20] 48.4% | viability, T/C [21] 46.9% | viability, T/C [22] 48.7% | viability, T/C [23] 51.8% | viability, T/C [24] 48.2% | viability, T/C [25] 53.7% | viability, T/C [26] 65.8% | viability, T/C [27] 56.1% | viability, T/C [28] 57.4% | viability, T/C [29] 58.3% | viability, T/C [30] 44.4%

CC1COCCN1c1cc(C2(O)CC3CCC(C2)O3)c2cnn(-c3ccn[nH]3)c2n1 (centres undefined) + Cc1cnc(CNC(=O)c2c(=O)c3ccc(N4CCCN(C)CC4)nc3n3c2sc2ccccc23)cn1
> 7.50: pIC50 (second compound 0.1 µM) | pIC50 (second compound 0.316 µM) | pIC50 (second compound 1 µM) | pIC50 (second compound 3.16 µM) | pIC50 (second compound 10 µM)
active: viability, T/C [30] 7.65% | viability, T/C [31] 0.12% | viability, T/C [32] 0.16% | viability, T/C [33] 0.21% | viability, T/C [34] 0.15% | viability, T/C [35] 0.23% | viability, T/C [36] 0.19%
7.50: pIC50 (second compound 0.0316 µM)
inactive: viability, T/C [1] 50.7% | viability, T/C [2] 27.5% | viability, T/C [3] 19.5% | viability, T/C [4] 20.4% | viability, T/C [5] 18.7% | viability, T/C [6] 9.73% | viability, T/C [7] 35% | viability, T/C [8] 22.3% | viability, T/C [9] 19.1% | viability, T/C [10] 19% | viability, T/C [11] 17.7% | viability, T/C [12] 12.7% | viability, T/C [13] 29.6% | viability, T/C [14] 25.4% | viability, T/C [15] 24.9% | viability, T/C [16] 22% | viability, T/C [17] 18.3% | viability, T/C [18] 10.8% | viability, T/C [19] 38.9% | viability, T/C [20] 29.1% | viability, T/C [21] 27.5% | viability, T/C [22] 23.8% | viability, T/C [23] 20% | viability, T/C [24] 11.7% | viability, T/C [25] 37.9% | viability, T/C [26] 32.3% | viability, T/C [27] 31.6% | viability, T/C [28] 23.4% | viability, T/C [29] 18.2%

Reference: PubChem BioAssay AID2060508 (Molecular Pharmacology Branch, DTP, NCI, 2025)
